Consider five compounds from patent US20200339548A1, “PYRIMIDINE DERIVATIVES AND THEIR USE FOR THE TREATMENT OF CANCER” (Adorx Therapeutics Limited, priority 2017, published 2020).

Where two headings read alike, the source gives them in different places.

One data set addresses T1, Adenosine A2b receptor (Homo sapiens, UniProt P29275).
T1 construct: expressed in transfected cells; host or cells: CHO cell membranes
T1 sequence (P29275 1-332): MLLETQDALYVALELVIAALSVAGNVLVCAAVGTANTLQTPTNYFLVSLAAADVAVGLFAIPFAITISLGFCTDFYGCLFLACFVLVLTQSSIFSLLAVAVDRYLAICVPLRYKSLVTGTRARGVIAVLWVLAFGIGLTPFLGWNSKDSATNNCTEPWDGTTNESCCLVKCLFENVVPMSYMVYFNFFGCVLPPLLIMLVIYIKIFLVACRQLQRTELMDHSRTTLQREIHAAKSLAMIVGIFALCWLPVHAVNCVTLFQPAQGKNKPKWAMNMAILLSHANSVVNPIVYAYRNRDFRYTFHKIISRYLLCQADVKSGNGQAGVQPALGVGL
The data set is described as follows: Adenosine receptor TR-FRET binding assay, A2b. Conditions: Table 9, further testing; displacement of 30 nM CA200645, CHO cell membranes. The method, boiled down:
(§1)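 Competition TR-FRET binding in CHO cell membranes expressing terbium-labelled human receptors, displacing fluorescent XAC (CA200645; 30 nM for A2b, 100 nM for A1, A2a, A3); 2 h at room temperature with saponin buffer, 1% DMSO. 665/620 nm ratio; non-specific with 10 μM XAC; Ki by Cheng–Prusoff from IC50.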
A general note: TR-FRET usually uses a lanthanide donor and a delayed reading to cut background.

The next data set addresses T2, Adenosine A3 receptor (Homo sapiens, UniProt P0DMS8).
T2 construct: expressed in transfected cells; host or cells: CHO cell membranes
T2 sequence (P0DMS8 1-318): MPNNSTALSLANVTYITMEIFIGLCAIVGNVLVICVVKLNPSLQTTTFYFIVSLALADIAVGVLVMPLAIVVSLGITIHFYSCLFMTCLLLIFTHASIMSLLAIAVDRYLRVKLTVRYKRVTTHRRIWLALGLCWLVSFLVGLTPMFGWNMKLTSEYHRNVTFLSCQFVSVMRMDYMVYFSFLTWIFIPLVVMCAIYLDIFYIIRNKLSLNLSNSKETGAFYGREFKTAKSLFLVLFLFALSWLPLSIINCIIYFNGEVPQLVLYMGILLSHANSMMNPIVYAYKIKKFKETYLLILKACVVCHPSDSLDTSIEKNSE
Put plainly: Adenosine receptor TR-FRET binding assay, A3. Particulars: Table 9, further testing; displacement of 100 nM CA200645, CHO cell membranes; read-out: A3 Ki. Summed up:
as §1

A further data set deals with Human Whole Blood. Put plainly: LPS stimulated TNF-alpha release NECA reversal assay. Conditions: 5 hours. Type of data set: cell-based. The method, then: Blood is drawn from healthy volunteers using sodium citrate (0.3% final concentration) or heparin (19.5 U/ml) as the anticoagulant. A 15 minute incubation may be given with adenosine deaminase (2 u/ml) prior to plating the blood into assay plates, as indicated. 20 μl diluted compound mix containing LPS, NECA and adenosine receptor antagonist diluted in RPMI medium is added to U-bottom cell culture plates. 180 μl anticoagulated blood is added. Assay plates are incubated for 5 hours at 37° C. in a humidified incubator. Plasma obtained by centrifugation at 2000 rpm/10 mins is tested for TNF alpha levels using the human TNF alpha Tissue Culture Kit (Meso Scale Discovery). For bar charts, data is expressed as raw counts from a Mesoscale Sector Imager 6000.

The target of another data set is T3, Adenosine A2a receptor (Homo sapiens, UniProt P29274).
T3 construct: expressed in transfected cells; host or cells: CHO cell membranes
T3 sequence (P29274 whole entry): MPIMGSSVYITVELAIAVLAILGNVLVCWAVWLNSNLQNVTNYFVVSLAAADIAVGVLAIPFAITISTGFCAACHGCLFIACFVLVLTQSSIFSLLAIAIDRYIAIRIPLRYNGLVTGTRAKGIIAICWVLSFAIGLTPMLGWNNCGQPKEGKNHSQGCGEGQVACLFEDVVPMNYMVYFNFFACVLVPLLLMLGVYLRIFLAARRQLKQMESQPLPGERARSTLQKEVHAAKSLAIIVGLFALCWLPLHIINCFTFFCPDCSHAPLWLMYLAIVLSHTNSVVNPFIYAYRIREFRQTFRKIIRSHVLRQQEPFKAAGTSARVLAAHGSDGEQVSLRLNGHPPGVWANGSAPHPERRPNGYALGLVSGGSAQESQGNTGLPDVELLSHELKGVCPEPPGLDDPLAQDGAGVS
The data set is described as follows: Adenosine receptor TR-FRET binding assay, A2a. Conditions: displacement of 100 nM CA200645, CHO cell membranes. Summed up:
as §1

A further data set addresses T4, Adenosine A1 receptor (Homo sapiens, UniProt P30542).
T4 construct: expressed in transfected cells; host or cells: CHO cell membranes
T4 sequence (P30542 1-326): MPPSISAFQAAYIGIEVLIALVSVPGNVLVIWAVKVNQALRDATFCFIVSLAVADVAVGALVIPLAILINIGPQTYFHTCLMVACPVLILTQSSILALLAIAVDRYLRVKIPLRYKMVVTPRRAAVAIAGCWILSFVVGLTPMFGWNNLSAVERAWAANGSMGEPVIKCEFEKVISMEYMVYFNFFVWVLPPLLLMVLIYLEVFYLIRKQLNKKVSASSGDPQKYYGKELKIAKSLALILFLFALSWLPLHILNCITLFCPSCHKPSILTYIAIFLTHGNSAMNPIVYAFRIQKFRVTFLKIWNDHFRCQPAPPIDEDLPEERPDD
The data set is described as follows: Adenosine receptor TR-FRET binding assay, A1. Conditions: Table 9, further testing; displacement of 100 nM CA200645, CHO cell membranes. Summed up: as §1

For data set [1], the system named is CD8+T Cells in Human Whole Blood. The data set is described as follows: Measurement of pCREB in CD8+ T cells. Type of data set: cell-based. Particulars: T-cell, 1 h; heparinised human whole blood, rolipram, 3 μM NECA, 60 min, FACS. The method, then: Heparinised human whole blood was pre-incubated at 37° C. with serial dilutions of A2a antagonists for 20 min. and the phosphodiesterase inhibitor rolipram to amplify the pCREB response. The adenosine receptor agonist NECA is then added at a final concentration of 3 μM and following a 60 min incubation the blood is fixed and red blood cells lysed. White blood cells are isolated, permeabilized and stained with directly conjugated fluorescent antibodies to phospho-CREB (Alexa Fluor 488) and CD8 (Alexa Fluor 647) and the level of phospho-CREB in CD8+ T cells is measured by FACS using a BD Accuri C6 Flow Cytometer.

Another data set relates to Human PBMCs. The data set is described as follows: CD3/CD28 stimulated IL-2 release NECA reversal assay. The data set is classed as cell-based. The method, then:
Blood is drawn from healthy volunteers using sodium citrate as the anticoagulant (0.3% final concentration). […] 50 μl diluted compound mix is added to the cells, to obtain final concentrations of 1 ug/ml CD28 antibody, 1 uM NECA and 0.003-10 μM adenosine receptor antagonist. Assay plates are incubated for 24 hours at 37° C. in a humidified incubator.

In the next data set the test system is cancer. Conditions: monotherapy and in combination with atezolizumab, preliminary data, cited from earlier work.
The mark [2] stands for this setting: Homo sapiens, PBMC, read-out: IL-2 release NECA reversal IC50 (nM), 1 uM NECA, 24 hours.

In the case of `COc1nc(-c2ccco2)nc(N)c1C(=O)NCc1c(Cl)cccc1Cl` [Example 18.3, 4-Amino-N-[(2,6-dichlorophenyl)methyl]-2-(2-furyl)-6-methoxy-pyrimidine-5-carboxamide], the Ki (commonly a dissociation constant, usually derived from enzyme kinetics or from competition with a known ligand) at Adenosine A2b receptor amounted to 5.4 nM; on Adenosine A3 receptor it was 194 nM; on Adenosine A2a receptor (Table 9, further testing), 0.078 nM; on Adenosine A1 receptor it was 18 nM. The IC50 (usually the concentration that inhibits the measured activity by half) stood at 476 nM in the data set with Human Whole Blood, 17 nM in data set [1] and 5 nM in the data set on Human PBMCs (setting [2]).

Take `Cc1ccc(-c2nc(N)nc3c2nnn3Cc2cccc(CO[C@H]3CCOC3)n2)o1` [CPI-444]: in the data set on cancer (early indications), the “CD8+T infiltration into tumour tissue” value is reported as “enhancing CD8^+T infiltration into tumour tissue” and the tumour size result is on record as “reducing tumour size”. In the data set with cancer, the tolerability entry is listed as “well tolerated”.

Consider `Cc1cccnc1CNC(=O)c1c(N)nc(-c2ncco2)nc1OCCF` [Example 25, 4-Amino-6-(2-fluoroethoxy)-N-[(3-methyl-2-pyridyl)methyl]-2-oxazol-2-yl-pyrimidine-5-carboxamide], for which the inhibitory constant (Ki) was found to be 77 nM on Adenosine A2b receptor; 62 nM on Adenosine A3 receptor; 1.3 nM on Adenosine A2a receptor (Table 9, further testing); 260 nM on Adenosine A1 receptor. Besides, the IC50 in data set [1] amounted to 106 nM; in the data set with Human PBMCs (setting [2]), 11 nM.

Consider `Cc1cccnc1CNC(=O)c1c(N)nc(-c2ccco2)nc1OC[C@H](C)O` [Example 20.11, 4-Amino-2-(2-furyl)-6-[(2S)-2-hydroxypropoxy]-N-[(3-methyl-2-pyridyl)methyl]pyrimidine-5-carboxamide], for which the Ki at Adenosine A2b receptor came to 80 nM; at Adenosine A3 receptor, 11 nM; on Adenosine A2a receptor (Table 9, further testing) it was 0.11 nM; at Adenosine A1 receptor, 1.7 nM. Moreover, the values for the IC50 (in the data set on Human Whole Blood; in data set [1]; in the data set on Human PBMCs (setting [2])) were 221 nM, 42 nM and 9 nM, respectively.

`Cc1cccnc1CNC(=O)c1cnc(-c2ccco2)nc1N` [Example 3, 4-Amino-2-(2-furyl)-N-[(3-methyl-2-pyridyl)methyl]pyrimidine-5-carboxamide]: the Ki at Adenosine A2b receptor came out at 440 nM; at Adenosine A3 receptor it was 908 nM; at Adenosine A2a receptor (Table 8, Cheng and Prusoff) it was 1.7 nM; on Adenosine A2a receptor (Table 9, further testing), 3.3 nM; on Adenosine A1 receptor, 1720 nM. Also, the IC50 with Human Whole Blood was found to be 2290 nM; in data set [1] it was 1210 nM; in the data set on Human PBMCs (read-out: IL-2 release NECA reversal IC50, 1 uM NECA, 24 hours), 77 nM.
